According to patent US20210038587A1, “METHODS AND COMPOSITIONS FOR TREATING NON-ERK MAPK PATHWAY INHIBITOR-RESISTANT CANCERS” (BIOMED VALLEY DISCOVERIES, INC., priority 2013, published 2021):

Tests used:
Assay in all cases: Reverse Phase Protein Analysis (RPPA)
Conditions in all cases: % change from DMSO (matched cell line)
Colo205 = type: cell-based, human
HCT116 = type: cell-based, human
Description: (§1) Control wells were treated with DMSO at 0.1% (v/v) for 6 hours prior to cell lysate generation. Samples were then analyzed using reverse-phase protein microarray technology (Theranostics Health).
(§2) Cell lines with common alterations in BRAF and RAS were assayed: BRAF^V600E mutant lines A375, Colo205, and HT29; KRAS^G12C-mutant cell line MIAPACa-2; KRAS^G13D-mutant cell line HCT116; and AN3Ca with atypical HRAS^F82L mutation. Changes in protein levels are shown as a percentage change from dimethyl sulfoxide (DMSO)-treated parental control (FIG. 32A and Table 23).

AN3Ca = type: cell-based
Description: as §1, §2

HT29 = type: cell-based
Description: as §1, §2

Cc1cnc(Nc2ccc(F)cc2Cl)nc1-c1c[nH]c(C(=O)N[C@H](CO)c2cccc(Cl)c2)c1 [Vx-11e]
Avg (4ebp1 T70) (Colo205): −43.71%
Avg (Akt S473) (Colo205): −10.96%
Avg (Akt) (Colo205): −12.51%
Avg (Bad S136) (Colo205): −1.01%
Avg (Bad S155) (Colo205): −9.72%
Avg (Bak) (Colo205): −2.79%
Avg (Bax) (Colo205): −9.16%
Avg (Bcl 2) (Colo205): −14.09%
Avg (Bcl2 S70) (Colo205): −20.82%
Avg (Bcl 2 T56) (Colo205): −12.02%
Avg (Bim) (Colo205): 34.1%
Avg (CREB S133) (Colo205): −10.64%
Avg (Caspase 3 CL D175) (Colo205): −2.67%
Avg (Caspase 7 Cl D198) (Colo205): 0.03%
Avg (Chk1) (Colo205): −9.16%
Avg (Chk1 S345) (Colo205): 13.12%
Avg (Cyclin D1) (Colo205): −39.79%
Avg (ERK 1 2) (Colo205): −12.32%
Avg (ERK 1 2 T202 Y204) (Colo205): 98.48%
Avg (MAK1 S360) (Colo205): 6.22%
Avg (Mcl1) (Colo205): −10.64%
Avg (Raptor S792) (Colo205): 0.2%
Avg (Raptor) (Colo205): −0.05%
Avg (Rictor) (Colo205): 1.65%
Avg (Stat1) (Colo205): −6.1%
Avg (Stat3) (Colo205): −7.96%
Avg (bad S112) (Colo205): −30.28%
Avg (c Fos) (Colo205): −19.34%
Avg (c Myc) (Colo205): −7.42%
Avg (mTOR S2448) (Colo205): −8.52%
Avg (mTOR S2481) (Colo205): −9.43%
Avg (mTOR) (Colo205): 3.62%
Avg (p70 S6 Kinase) (Colo205): −3.42%
Avg (p90 RSK S380) (Colo205): −58.6%
Avg(S6 Ribo Prot S235 236) (Colo205): −93.04%
Avg(S6 Ribo Prot S240 244) (Colo205): −94.89%
Avg(Tuberin TSC2 Y1571) (Colo205): −9.45%
Avg(p70 S6 Kinase S371 S394) (Colo205): −13.64%
Avg(p70 S6 Kinase T389 T412) (Colo205): −28%
Avg (4ebp1 T70) (HCT116): 10.35%
Avg (Akt S473) (HCT116): −16.94%
Avg (Akt) (HCT116): −18.15%
Avg (Bad S136) (HCT116): −5.39%
Avg (Bad S155) (HCT116): −15.59%
Avg (Bak) (HCT116): −3.07%
Avg (Bax) (HCT116): −20.46%
Avg (Bcl 2) (HCT116): −17.3%
Avg (Bcl2 S70) (HCT116): −17.79%
Avg (Bcl 2 T56) (HCT116): −25%
Avg (Bim) (HCT116): 4.82%
Avg (CREB S133) (HCT116): −9.17%
Avg (Caspase 3 CL D175) (HCT116): −5.19%
Avg (Caspase 7 Cl D198) (HCT116): −11.41%
Avg (Chk1) (HCT116): −8.63%
Avg (Chk1 S345) (HCT116): −16.49%
Avg (Cyclin D1) (HCT116): −72.72%
Avg (ERK 1 2) (HCT116): −24.01%
Avg (ERK 1 2 T202 Y204) (HCT116): 873.33%
Avg (MAK1 S360) (HCT116): −13.73%
Avg (Mcl1) (HCT116): −7.79%
Avg (Raptor S792) (HCT116): −11.21%
Avg (Raptor) (HCT116): −4.32%
Avg (Rictor) (HCT116): 1.78%
Avg (Stat1) (HCT116): −14.06%
Avg (Stat3) (HCT116): −7.76%
Avg (bad S112) (HCT116): −23.88%
Avg (c Fos) (HCT116): −13.89%
Avg (c Myc) (HCT116): −18.56%
Avg (mTOR S2448) (HCT116): −10.12%
Avg (mTOR S2481) (HCT116): −17.82%
Avg (mTOR) (HCT116): −0.59%
Avg (p70 S6 Kinase) (HCT116): −4.45%
Avg (p90 RSK S380) (HCT116): −33.05%
Avg(S6 Ribo Prot S235 236) (HCT116): −90.03%
Avg(S6 Ribo Prot S240 244) (HCT116): −86.06%
Avg(Tuberin TSC2 Y1571) (HCT116): −16.51%
Avg(p70 S6 Kinase S371 S394) (HCT116): −9.89%
Avg(p70 S6 Kinase T389 T412) (HCT116): −20.99%
Avg (4ebp1 T70) (AN3Ca): 16.67%
Avg (Akt S473) (AN3Ca): 56.17%
Avg (Akt) (AN3Ca): −24.62%
Avg (Bad S136) (AN3Ca): −3.81%
Avg (Bad S155) (AN3Ca): 4.59%
Avg (Bak) (AN3Ca): −1.6%
Avg (Bax) (AN3Ca): −7.89%
Avg (Bcl 2) (AN3Ca): −18.77%
Avg (Bcl2 S70) (AN3Ca): −14.39%
Avg (Bcl 2 T56) (AN3Ca): −11.73%
Avg (Bim) (AN3Ca): −1.46%
Avg (CREB S133) (AN3Ca): 0.16%
Avg (Caspase 3 CL D175) (AN3Ca): −12.7%
Avg (Caspase 7 Cl D198) (AN3Ca): −8.09%
Avg (Chk1) (AN3Ca): −0.46%
Avg (Chk1 S345) (AN3Ca): −9.54%
Avg (Cyclin D1) (AN3Ca): −9.59%
Avg (ERK 1 2) (AN3Ca): −11.27%
Avg (ERK 1 2 T202 Y204) (AN3Ca): 718.94%
Avg (MAK1 S360) (AN3Ca): 6.83%
Avg (Mcl1) (AN3Ca): −4.24%
Avg (Raptor S792) (AN3Ca): 0.37%
Avg (Raptor) (AN3Ca): −2.47%
Avg (Rictor) (AN3Ca): 0.02%
Avg (Stat1) (AN3Ca): −0.83%
Avg (Stat3) (AN3Ca): −7.67%
Avg (bad S112) (AN3Ca): −45.63%
Avg (c Fos) (AN3Ca): −5.52%
Avg (c Myc) (AN3Ca): −5.47%
Avg (mTOR S2448) (AN3Ca): −2.37%
Avg (mTOR S2481) (AN3Ca): 7.22%
Avg (mTOR) (AN3Ca): −6.27%
Avg (p70 S6 Kinase) (AN3Ca): −2.33%
Avg (p90 RSK S380) (AN3Ca): −28.41%
Avg(S6 Ribo Prot S235 236) (AN3Ca): −18.54%
Avg(S6 Ribo Prot S240 244) (AN3Ca): −12.55%
Avg(Tuberin TSC2 Y1571) (AN3Ca): 3.8%
Avg(p70 S6 Kinase S371 S394) (AN3Ca): 44.04%
Avg(p70 S6 Kinase T389 T412) (AN3Ca): 0.56%
Avg (4ebp1 T70) (HT29): −2.89%
Avg (Akt S473) (HT29): −20.5%
Avg (Akt) (HT29): −17.84%
Avg (Bad S136) (HT29): 5.53%
Avg (Bad S155) (HT29): −11.26%
Avg (Bak) (HT29): 2.69%
Avg (Bax) (HT29): −18.47%
Avg (Bcl 2) (HT29): −16.73%
Avg (Bcl2 S70) (HT29): −12.55%
Avg (Bcl 2 T56) (HT29): −25.01%
Avg (Bim) (HT29): 3.12%
Avg (CREB S133) (HT29): 14.16%
Avg (Caspase 3 CL D175) (HT29): −2.86%
Avg (Caspase 7 Cl D198) (HT29): 8.28%
Avg (Chk1) (HT29): 4.68%
Avg (Chk1 S345) (HT29): 6.44%
Avg (Cyclin D1) (HT29): −35.2%
Avg (ERK 1 2) (HT29): 0.24%
Avg (ERK 1 2 T202 Y204) (HT29): 435.68%
Avg (MAK1 S360) (HT29): 5.64%
Avg (Mcl1) (HT29): 1.36%
Avg (Raptor S792) (HT29): −2.13%
Avg (Raptor) (HT29): −6.53%
Avg (Rictor) (HT29): −2.6%
Avg (Stat1) (HT29): 4.29%
Avg (Stat3) (HT29): −4.28%
Avg (bad S112) (HT29): −35.62%
Avg (c Fos) (HT29): −8.23%
Avg (c Myc) (HT29): 10.71%
Avg (mTOR S2448) (HT29): −13.94%
Avg (mTOR S2481) (HT29): 0.52%
Avg (mTOR) (HT29): 16.94%
Avg (p70 S6 Kinase) (HT29): −1.72%
Avg (p90 RSK S380) (HT29): −43.41%
Avg(S6 Ribo Prot S235 236) (HT29): −32.8%
Avg(S6 Ribo Prot S240 244) (HT29): −24.35%
Avg(Tuberin TSC2 Y1571) (HT29): 2.85%
Avg(p70 S6 Kinase S371 S394) (HT29): −22.86%
Avg(p70 S6 Kinase T389 T412) (HT29): −12.31%
